In the assay the test system is Escherichia coli. Kind of assay: Inhibitory concentration of compound was determined against Escherichia coli in the absence of alkynyl amino acid 1. Type of assay: functional, organism-based.

Values after ≈ are worked out from the molar mass of the structure shown.

As usually defined, the IC50 is the midpoint of a concentration-inhibition curve. A lower IC50 goes with inhibition by little substance. For the molecule `O=C(N[C@H](CO)[C@H](O)c1ccc([N+](=O)[O-])cc1)C(Cl)Cl` [CHLORAMPHENICOL], inhibition was half-maximal at 5 µg/mL (≈ 15.5 µM) (IC50).

Source of the values: ChEMBL document CHEMBL1142027, “In vivo incorporation of an alkyne into proteins in Escherichia coli” (Bioorg Med Chem Lett, 2005).
